Several values for one entry are separate records, joined by “and”; a condition that tells them apart may be missing. Equal values may be shown once.
Conditions: 303.16 K, Liquid, Vibrating tube method

CCCC(=O)OCC(COC(=O)CCC)(COC(=O)CCC)COC(=O)CCC [pentaerythritol tetrabutyrate]
Conditions	mass density
218.9 kPa	1042.3 kg/m3
232.4 kPa	1042.3 kg/m3
246.9 kPa	1042.3 kg/m3
262 kPa	1042.5 kg/m3
324.9 kPa	1042.3 kg/m3
472.3 kPa	1042.4 kg/m3
544.7 kPa	1042.5 kg/m3
563.5 kPa	1042.5 kg/m3
587.1 kPa	1042.5 kg/m3
607.3 kPa	1042.4 kg/m3
629 kPa	1042.6 kg/m3
656.4 kPa	1042.6 kg/m3
678.3 kPa	1042.6 kg/m3
696.6 kPa	1042.6 kg/m3
718.1 kPa	1042.7 kg/m3
737.2 kPa	1042.6 kg/m3
757 kPa	1042.6 kg/m3
776.8 kPa	1042.6 kg/m3
796 kPa	1042.7 kg/m3
818.2 kPa	1042.7 kg/m3
836.3 kPa	1042.7 kg/m3
853.6 kPa	1042.7 kg/m3
873.1 kPa	1042.8 kg/m3
890.5 kPa	1042.7 kg/m3
907.8 kPa	1042.7 kg/m3
929.5 kPa	1042.8 kg/m3
947.9 kPa	1042.7 kg/m3
966.4 kPa	1042.8 kg/m3
985.3 kPa	1042.9 kg/m3
1007.9 kPa	1042.8 kg/m3
1026.6 kPa	1042.8 kg/m3
1044.5 kPa	1042.8 kg/m3
1062.2 kPa	1042.9 kg/m3
1083.2 kPa	1043 kg/m3
1101 kPa	1042.8 kg/m3
1119.2 kPa	1042.9 kg/m3
1141.3 kPa	1042.9 kg/m3
1160.5 kPa	1042.9 kg/m3
1180.3 kPa	1042.9 kg/m3
1203.2 kPa	1042.8 kg/m3
1223.6 kPa	1042.8 kg/m3
1243.7 kPa	1043 kg/m3
1290.1 kPa	1043 kg/m3
1358.8 kPa	1043.1 kg/m3
1379.7 kPa	1043 kg/m3
1401.5 kPa	1043 kg/m3
1428.1 kPa	1043.1 kg/m3
1450.3 kPa	1043.1 kg/m3
1473.3 kPa	1043.1 kg/m3
1501.7 kPa	1043.2 kg/m3
1526.2 kPa	1043.1 kg/m3
1550.9 kPa	1043.1 kg/m3
1583.5 kPa	1043.2 kg/m3
1604.5 kPa	1043.2 kg/m3
1630.2 kPa	1043.2 kg/m3
1662.3 kPa	1043.2 kg/m3
1689.4 kPa	1043.3 kg/m3
1717.5 kPa	1043.3 kg/m3
1751.5 kPa	1043.3 kg/m3
1780.2 kPa	1043.3 kg/m3
1810 kPa	1043.3 kg/m3
1846.1 kPa	1043.4 kg/m3
1877 kPa	1043.3 kg/m3
1908.8 kPa	1043.5 kg/m3
1942.4 kPa	1043.5 kg/m3
1983.9 kPa	1043.5 kg/m3
2011.5 kPa	1043.6 kg/m3
2053.9 kPa	1043.4 kg/m3
2086.5 kPa	1043.6 kg/m3
2109.2 kPa	1043.5 kg/m3
2134.7 kPa	1043.5 kg/m3
2155.2 kPa	1043.4 kg/m3
2176 kPa	1043.6 kg/m3
2200.7 kPa	1043.6 kg/m3
2220.8 kPa	1043.6 kg/m3
2241.1 kPa	1043.6 kg/m3
2266.1 kPa	1043.6 kg/m3
2286.5 kPa	1043.6 kg/m3
2308 kPa	1043.7 kg/m3
2333 kPa	1043.7 kg/m3
2354.7 kPa	1043.7 kg/m3
2376.6 kPa	1043.7 kg/m3
2398.4 kPa	1043.7 kg/m3
2422.9 kPa	1043.8 kg/m3
2443.3 kPa	1043.9 kg/m3
2464.3 kPa	1043.6 kg/m3
2488.8 kPa	1043.8 kg/m3
2509.4 kPa	1043.8 kg/m3
2530.2 kPa	1043.8 kg/m3
2554.7 kPa	1043.7 kg/m3
2576.2 kPa	1043.9 kg/m3
2597.2 kPa	1043.9 kg/m3
2618.2 kPa	1043.9 kg/m3
2643 kPa	1043.9 kg/m3
2663.8 kPa	1044 kg/m3
2685.1 kPa	1043.9 kg/m3
2711.1 kPa	1044 kg/m3
2732.8 kPa	1044 kg/m3
2754.8 kPa	1044 kg/m3
2781 kPa	1043.9 kg/m3
2802.9 kPa	1044 kg/m3
2824.7 kPa	1044 kg/m3
2874.3 kPa	1044.1 kg/m3
2897.5 kPa	1044 kg/m3
2943.5 kPa	1044.1 kg/m3
2971 kPa	1044.1 kg/m3
2993.1 kPa	1044.1 kg/m3
3014.9 kPa	1044.1 kg/m3
3041.8 kPa	1044.2 kg/m3
3063.6 kPa	1044.2 kg/m3
3085.8 kPa	1044.2 kg/m3
3108.7 kPa	1044.3 kg/m3
3136.3 kPa	1044.2 kg/m3
3159.3 kPa	1044.2 kg/m3
3182.9 kPa	1044.2 kg/m3
3207 kPa	1044.3 kg/m3
3235.1 kPa	1044.3 kg/m3
3258.3 kPa	1044.2 kg/m3
3282.9 kPa	1044.4 kg/m3
3311.7 kPa	1044.3 kg/m3
3336.1 kPa	1044.3 kg/m3
3361.2 kPa	1044.5 kg/m3
3386.4 kPa	1044.3 kg/m3
3416 kPa	1044.5 kg/m3
3440.9 kPa	1044.4 kg/m3
3466.4 kPa	1044.4 kg/m3
3492.4 kPa	1044.4 kg/m3
3523.8 kPa	1044.5 kg/m3
3549.8 kPa	1044.5 kg/m3
3576.6 kPa	1044.5 kg/m3
3603.3 kPa	1044.5 kg/m3
3635.4 kPa	1044.6 kg/m3
3661.7 kPa	1044.6 kg/m3
3688.4 kPa	1044.7 kg/m3
3710.9 kPa	1044.6 kg/m3
3733.8 kPa	1044.6 kg/m3
3756.6 kPa	1044.6 kg/m3
3784.2 kPa	1044.7 kg/m3
3807.4 kPa	1044.6 kg/m3
3831.5 kPa	1044.7 kg/m3
3857.6 kPa	1044.7 kg/m3
3881.3 kPa	1044.7 kg/m3
3909.9 kPa	1044.8 kg/m3
3931.4 kPa	1044.7 kg/m3
3952.7 kPa	1044.7 kg/m3
3974.1 kPa	1044.8 kg/m3
3999.8 kPa	1044.9 kg/m3
4021.6 kPa	1044.7 kg/m3
4043.6 kPa	1044.8 kg/m3
4069.7 kPa	1044.7 kg/m3
4092.1 kPa	1044.9 kg/m3
4114.1 kPa	1044.9 kg/m3
4137.5 kPa	1044.9 kg/m3
4161.7 kPa	1045 kg/m3
4182.5 kPa	1044.9 kg/m3
4206.7 kPa	1045.1 kg/m3
4227.1 kPa	1044.9 kg/m3
4251.9 kPa	1044.9 kg/m3
4272.5 kPa	1044.9 kg/m3
4293.5 kPa	1045.1 kg/m3
4314.4 kPa	1045 kg/m3
4335.5 kPa	1045 kg/m3
4361 kPa	1045.1 kg/m3
4381.9 kPa	1045 kg/m3
4403.9 kPa	1045 kg/m3
4429.5 kPa	1045.1 kg/m3
4451.4 kPa	1045.1 kg/m3
4473.3 kPa	1044.9 kg/m3
4495 kPa	1045.2 kg/m3
4520.9 kPa	1045.2 kg/m3
4542.9 kPa	1045.2 kg/m3
4569.8 kPa	1045.3 kg/m3
4592.6 kPa	1045.1 kg/m3
4616.5 kPa	1045.2 kg/m3
4644.7 kPa	1045.3 kg/m3
4667.4 kPa	1045.2 kg/m3
4686.4 kPa	1045.3 kg/m3
4703.6 kPa	1045.4 kg/m3
4720.4 kPa	1045.3 kg/m3
4741.5 kPa	1045.3 kg/m3
4758.3 kPa	1045.4 kg/m3
4771.9 kPa	1045.4 kg/m3
4786.8 kPa	1045.4 kg/m3
4797.7 kPa	1045.2 kg/m3
4827.1 kPa	1045.4 kg/m3
4830.1 kPa	1045.3 kg/m3
4830.9 kPa	1045.3 kg/m3
4834.9 kPa	1045.4 kg/m3
4837.9 kPa	1045.4 kg/m3
4839.4 kPa	1045.4 kg/m3
4840.5 kPa	1045.3 kg/m3
4841.7 kPa	1045.4 kg/m3
4842.2 kPa	1045.4 kg/m3
4842.7 kPa	1045.4 kg/m3
4842.9 kPa	1045.3 kg/m3
4843.4 kPa	1045.4 kg/m3 and 1045.3 kg/m3
4843.9 kPa	1045.3 kg/m3 and 1045.4 kg/m3
4844.1 kPa	1045.3 kg/m3
4844.4 kPa	1045.4 kg/m3
4865 kPa	1045.3 kg/m3
4897.7 kPa	1045.4 kg/m3
4931.1 kPa	1045.4 kg/m3
4970.1 kPa	1045.4 kg/m3
4994.6 kPa	1045.4 kg/m3
5016.4 kPa	1045.4 kg/m3
5038.9 kPa	1045.5 kg/m3
5061.8 kPa	1045.5 kg/m3
5088.8 kPa	1045.5 kg/m3
5111.4 kPa	1045.4 kg/m3
5139.1 kPa	1045.4 kg/m3
5162.8 kPa	1045.5 kg/m3
5186.5 kPa	1045.5 kg/m3
5210.6 kPa	1045.6 kg/m3
5239.4 kPa	1045.7 kg/m3
5264.7 kPa	1045.6 kg/m3
5290.3 kPa	1045.6 kg/m3
5317.3 kPa	1045.7 kg/m3
5342.9 kPa	1045.5 kg/m3
5367.5 kPa	1045.7 kg/m3
5393.1 kPa	1045.6 kg/m3
5414.2 kPa	1045.7 kg/m3
5436 kPa	1045.7 kg/m3
5462.1 kPa	1045.7 kg/m3
5484.2 kPa	1045.7 kg/m3
5506.7 kPa	1045.7 kg/m3
5533.5 kPa	1045.7 kg/m3
5556 kPa	1045.9 kg/m3
5579 kPa	1045.8 kg/m3
5603.2 kPa	1045.8 kg/m3
5627.4 kPa	1045.9 kg/m3
5651.3 kPa	1045.8 kg/m3
5674.9 kPa	1045.9 kg/m3
5703.6 kPa	1045.9 kg/m3
5728 kPa	1046 kg/m3
5753.1 kPa	1045.9 kg/m3
5783.4 kPa	1046 kg/m3
5808.8 kPa	1046 kg/m3
5831.6 kPa	1045.9 kg/m3
5852.2 kPa	1046 kg/m3
5876.5 kPa	1046.1 kg/m3
5897.6 kPa	1046.1 kg/m3
5918.4 kPa	1046.1 kg/m3
5939.8 kPa	1046.1 kg/m3
5964.7 kPa	1046.1 kg/m3
5986.2 kPa	1046.1 kg/m3
6007.4 kPa	1046.3 kg/m3
6033.9 kPa	1046.1 kg/m3
6056.2 kPa	1046.2 kg/m3
6079 kPa	1046.2 kg/m3
6101.4 kPa	1046.1 kg/m3
6124.1 kPa	1046.2 kg/m3
6142.1 kPa	1046.1 kg/m3
6159.7 kPa	1046.1 kg/m3
6178 kPa	1046.1 kg/m3
6190.3 kPa	1046.2 kg/m3
6202.4 kPa	1046.2 kg/m3
6213.1 kPa	1046.2 kg/m3
6221.2 kPa	1046.3 kg/m3
6226.4 kPa	1046.2 kg/m3
6231.1 kPa	1046.2 kg/m3
6237.5 kPa	1046.3 kg/m3
6242.1 kPa	1046.3 kg/m3
6247.5 kPa	1046.2 kg/m3
6252.7 kPa	1046.3 kg/m3
6258.9 kPa	1046.2 kg/m3
6263.7 kPa	1046.2 kg/m3
6268.7 kPa	1046.4 kg/m3
6273.9 kPa	1046.3 kg/m3
6280.5 kPa	1046.3 kg/m3
6285.5 kPa	1046.3 kg/m3
6290.3 kPa	1046.4 kg/m3
6296 kPa	1046.2 kg/m3
6300.7 kPa	1046.2 kg/m3
6304.9 kPa	1046.2 kg/m3
6309.5 kPa	1046.2 kg/m3
6312.6 kPa	1046.3 kg/m3
6314.7 kPa	1046.4 kg/m3
6316.4 kPa	1046.2 kg/m3
6325.3 kPa	1046.3 kg/m3
6353.3 kPa	1046.3 kg/m3
6384.4 kPa	1046.4 kg/m3
6414.9 kPa	1046.3 kg/m3
6445.5 kPa	1046.5 kg/m3
6469.5 kPa	1046.4 kg/m3
6493.9 kPa	1046.3 kg/m3
6597.9 kPa	1046.5 kg/m3
6628 kPa	1046.5 kg/m3
6653.7 kPa	1046.6 kg/m3
6679.6 kPa	1046.5 kg/m3
6706.4 kPa	1046.5 kg/m3
6732.8 kPa	1046.5 kg/m3
6763.9 kPa	1046.7 kg/m3
